Our source for the Activity and MIC values is ChEMBL document CHEMBL1158741, “Majusculoic acid, a brominated cyclopropyl fatty acid from a marine cyanobacterial mat assemblage” (2005).

≈ marks a conversion by molar mass, not a printed value. Calls of active or inactive are those of the source. No cut-off for these calls is given here.

For test [1], the system named is Candida albicans. In words: Antifungal activity against fluconazole-resistant Candida albicans UCD FR1. It counts as functional, organism-based.
The test system of test [2] is Nakaseomyces glabratus. As to the kind of experiment: Antifungal activity against Candida glabrata. It counts as functional.
Test [3] has as its system Candida albicans. As to the kind of experiment: Antifungal activity against Candida albicans ATCC 14503. It counts as functional.

The MIC is the lowest concentration found to suppress growth. A lower MIC goes with greater potency. Turning to `CCC/C(Br)=C/C=C/CC[C@H]1C[C@@H]1CCC(=O)O` [MAJUSCULOIC ACID], the result in test [1] was inactive. For the same molecule, the MIC in test [2] worked out at 19.3 µM (≈ 6.08 µg/mL); in test [3], 8 µM (≈ 2.52 µg/mL).

Molecule `OC(Cn1cncn1)(Cn1cncn1)c1ccc(F)cc1F` [FLUCONAZOLE] returned an MIC in test [3] of 1 µM (≈ 0.306 µg/mL).
